Patent US8318808B2, “Zn2+chelating motif-tethered short-chain fatty acids as a novel class of histone deacetylase inhibitors” (The Ohio State University Research Foundation, priority 2007, dated 2012)
Read-outs that look alike come from different tables or passages of the source.

Columns and labels:
[1] = system: phospho-Akt in PC-3 cells (PTEN-/-); experiment: Activation status of Akt in PC-3 cells; format: cell-based; details: comparable concentrations
Source text: The effect of these agents on the activation status of Akt in PC-3 cells (PTEN^−/−) was also examined. Akt is constitutively activated in PC-3 cells due to lack of functional PTEN, which contributes to the androgen independency and chemotherapeutic resistance of these cells.

PC-3 xenograft tumors = experiment: Growth of established subcutaneous PC-3 xenograft tumors; details: for reduction in the growth of the tumors vs vehicle-treated control: 50 mg/kg/day; for suppression of growth of established PC-3 tumors: oral route, 50 and 100 mg/kg/day (either dose)
Protocol: In the in vivo experiment, PC-3 cells, suspended in equal volumes of serum-free medium and Matrigel basement membrane matrix, were injected subcutaneously into the flanks of 5-7 week old male NCr athymic nude mice (nu/nu) (0.5×10^6 cells/0.1 ml/mouse). […] The control group received p.o. or i.p. vehicle only (0.1% methylcellulose/0.05% Tween 80 in water and DMSO, respectively). Treatments continued until the mean tumor volume of the control group reached approximately 1,500 mm^3. Tumors were measured every week using Vernier calipers and their volumes calculated using a standard formula: width^2×length×0.52.

[2] = Toxicity, body weights and pathological evaluation of treated tumor-bearing mice; format: in vivo, NCr athymic nude mice (nu/nu); details: for body weights: measured weekly, compound 42 or 44 oral 50 and 100 mg/kg/day, SAHA i.p. 50 mg/kg/day
Protocol: At the conclusion of the study, complete pathological evaluation of one mouse from each treatment group was performed by board-certified veterinary pathologists at The Ohio State University College of Veterinary Medicine, which included clinical pathology (hematology, serum chemistries) and complete necropsy (gross and microscopic examination of at least 27 different tissues and organs). […] Hematological parameters were within normal limits except for a neutrophilia, which was observed only in mice from both vehicle-treated control groups and the SAHA- and compound 44 (50 mg/kg)-treated groups. Serum chemistry values were consistent with mild dehydration in the vehicle-treated mice, but were within normal limits for all other mice.

[3] = system: acetylation of histone H-3 in PC-3 xenograft tumors; experiment: Western blot of acetylated histone H3 in PC-3 xenograft tumor homogenates; format: in vivo, mice; details: 28 days
[4] = molecular target: histone deacetylase (HDAC) activity of DU-145 nuclear extract; experiment: In vitro HDAC assay (histone deacetylase assay kit, [3H]-acetyl histone H4 peptide); format: biochemical
Protocol: In vitro HDAC assay. HDAC activity was analyzed by using a histone deacetylase assay kit (Upstate Biotechnology, Lake Placid, N.Y.) by following the manufacturer's instruction with slight modifications. […] The release of [^3 H]-acetate into the supernatant was measured to calculate the HDAC activity. Sodium butyrate (0.25-1 mM) was used as a positive control.

PC-3 cells = experiment: cells; details: Homo sapiens, PC-3, 72 h, read-out: IC50, PC-3 cell proliferation
[5] = system: acetylated histones H3 and H4 and p21WAF/CIP1 in DU-145 cells; experiment: Western blot of histone acetylation and p21WAF/CIP1 expression in DU-145 cells; format: cell-based; details: for levels of acetylated histones H3 and H4, and p21WAF/CIP1: 10% FBS, HTPB 0.5-[…], TSA 0.25-0.5 μM, phenylbutyrate 1-5 mM
Protocol: Western blot analysis. DU-145 cells (1×10^6) treated with HTPB at the indicated concentrations in 10% FBS-supplemented RPMI 1640 medium for 24 h were collected, and sonicated. Protein concentrations of the lysates were determined by using a Bradford protein assay kit (Bio-Rad, Hercules, Calif.); equivalent amounts of proteins from each lysate were resolved in 10% SDS-polyacrylamide gel, and then transferred onto Immobilon-nitrocellulose membranes (Millipore, Bellerica, Mass.) in a semi-dry transfer cell. The transblotted membrane was washed twice with Tris-buffered saline (TBS) containing 0.1% Tween 20 (TBST). After blocking with TBST containing 5% nonfat milk for 40 min, the membrane was incubated with the primary antibody (1:1000 dilution) in TBST-1% nonfat milk at 4° C. overnight. After treatment with the primary antibody, the membrane was washed three times with TBST for a total of 15 min, followed by goat anti-rabbit or anti-mouse IgG-horseradish peroxidase conjugates (diluted 1:3000) for 1 h at room temperature and wash three times with TBST for a total of 1 h. The immunoblots were visualized by enhanced chemiluminescence.
DU-145 cells were exposed to HTPB at 0.5, 1, 2.5 μM, TSA at 0.25 and 0.5 μM, or phenylbutyrate at 1, 2.5, and 5 mM in 10% FBS-supplemented RPMI 1640 medium for 24 h. […] The effect of 1 μM HTPB on these biomarkers approximated that of 0.25 μM TSA, or 2.5 mM phenylbutyrate.

DU-145 cells [6] = experiment: Cell viability assay (MTT); format: cell-based; details: Homo sapiens, 10% FBS-supplemented RPMI-1640, read-out: IC50 in growth inhibition
Protocol: Cell viability assay. The effect of HTPB on cell viability was assessed by the MTT {[3-(4,5-dimethylthiazol-2-yl)-2,5-diphenyl-2 H-tetrazolium bromide]} assay in 96-well, flat-bottomed plates, in which 4,000 DU-145 cells/well were seeded. Cells were exposed to HTPB at the indicated concentrations in 10% FBS-supplemented RPMI-1640 medium at 37° C. in 5% CO2 for the indicated time. The medium was removed and replaced by 150 μl of 0.5 mg/ml of MTT in RPMI-1640 medium, and cells were incubated in the CO2 incubator at 37° C. for 2 hours. Supernatants were removed from the wells, and the reduced MTT dye was solubilized with 200 μl/well DMSO. Absorbance was determined on a plate reader at 570 nm. Each treatment was repeated in six wells.

DU-145 cells [7] = experiment: Apoptosis detection by Cell Death ELISA (nucleosomal DNA); format: cell-based
Protocol: Apoptosis Detection by An Enzyme-Linked Immunosorbent Assay (ELISA). Induction of apoptosis was assessed by using a Cell Death ELISA (Roche Diagnostics, Mannheim, Germany) by following the manufacturer's instruction. This test is based on the quantitative determination of cytoplasmic histone-associated DNA fragments in the form of mononucleosomes and oligonucleosomes after induced apoptotic death. In brief, 1×10^6 DU-145 cells were cultured in a T-75 flask 24 h prior to the experiment. Cells were treated with HTPB at the indicated concentrations in 10% FBS-supplemented RPMI 1640 medium. Both floating and adherent cells were collected, cell lysates equivalent to 2×10^3 cells were used in the ELISA.

[8] = system: chronic lymphocytic leukemia (TLC-1 transgenic mouse model); experiment: Pilot in vivo study in TLC-1 transgenic mouse model; details: 100 mg/kg oral gavage, 5 days on/two days off for 4 weeks
[9] = system: FAK (focal adhesion kinase); experiment: Phosphorylation level of FAK in PC-3 cells; format: cell-based
Source text: (§1) This dephosphorylating effect, however, is kinase-specific.

p38 = experiment: Phosphorylation level of p38 in PC-3 cells; format: cell-based
Source text: as §1

60 cell lines = experiment: Sixty-cell line screening by the NCI Developmental Therapeutics Program; format: cell-based; details: average against all 60 cell lines; read-out: average GI50 (50% inhibition of cell growth)
ERKs = experiment: Phosphorylation level of ERKs in PC-3 cells; format: cell-based
Source text: as §1

JNK = experiment: Phosphorylation level of JNK in PC-3 cells; format: cell-based
Source text: as §1

[10] = i.p., 50 mg/kg/day, one mouse per group
[11] = parent short-chain fatty acid, read-out: HDAC inhibition IC50
[12] = DU-145 nuclear extract, running text, read-out: HDAC inhibition IC50
[13] = DU-145 nuclear extract, read-out: HDAC inhibition IC50
[14] = Table 1, representative phenylbutyrate-based HDAC inhibitors, read-out: IC50

O=C(CCCCCCC(=O)Nc1ccccc1)NO [SAHA, suberoylanilide hydroxamic acid, reference compound]
effect on phospho-Akt [1]: no appreciable effect | reduction in the growth of the tumors vs vehicle-treated control (PC-3 xenograft tumors; i.p.): 69.9% | gross pathologic abnormalities at necropsy [2, 10]: small adhesions in the peritoneum | hematological parameters [2, 10]: neutrophilia | body weights [2]: stable throughout the study | acetylation level of histone H3 in PC-3 tumors ([3]; i.p., 50 mg/kg/day): significant increase

CCCC(CCC)C(=O)O [valproic acid, reference compound]
IC50 [4, 11]: 400000 nM

CC(C)(CCc1ccccc1)C(=O)Nc1ccc(C(=O)NO)cc1 [compound 44, 4-(2,2-Dimethyl-4-phenyl-butyrylamino)-N-hydroxy-benzamide]
IC50 (PC-3 cells): 800 nM | suppression of growth of established PC-3 tumors (PC-3 xenograft tumors): effective | IC50 [4, 12]: 32 nM | body weights [2]: stable throughout the study | hematological parameters ([2]; oral, 50 mg/kg, one mouse per group): neutrophilia

phenylbutyrate
concentration required for the same effects on histone acetylation and p21WAF/CIP1 expression [5]: at least 2.5 mM | concentration with approximately equal effect on acetylated histones H3/H4 and p21WAF/CIP1 ([5]; 24 h): 2500 µM | levels of acetylated histones H3 and H4, and p21WAF/CIP1 ([5]; 24 h): elevated levels | IC50 [4, 11]: 400000 nM

Nc1ccccc1NC(=O)c1ccc(NC(=O)CCCc2ccccc2)cc1 [compound 55, N-(2-Amino-phenyl)-4-(4-phenyl-butyrylamino)-benzamide]
IC50 [4, 13]: 400 nM | drop in HDAC inhibitory potency when hydroxamate of compound 19 is replaced by phenylenediamine ([4]; relative to compound 19): 10 fold

O=C(CCCc1ccccc1)Nc1ccc(C(=O)NO)cc1 [compound 19, N-Hydroxy-4-(4-phenylbutyrylamino)-benzamide]
concentration causing hyperacetylation of histones H-3 and H-4 (as low as) [5]: ≤ 0.5 µM | concentration at which p21WAF/CIP1 level increased substantially (as low as) ([5]; 24 h): ≤ 0.5 µM | concentration with approximately equal effect on acetylated histones H3/H4 and p21WAF/CIP1 ([5]; 24 h): 1 µM | levels of acetylated histones H3 and H4, and p21WAF/CIP1 ([5]; 24 h): elevated levels | IC50 (DU-145 cells [6]): 500 to 1000 nM | IC50 [4, 13]: 44 nM | IC50 [4, 12]: 44 nM | IC50 [4, 14]: 44 nM | drug concentration above which extensive apoptosis occurred (DU-145 cells [7]; 24 h): exceeded 1 μM | apoptosis (DNA fragmentation) (DU-145 cells [7]; 24 h exposure): sensitized DU-145 cells to apoptosis in a dose-dependent manner

CC[C@@H](C(=O)Nc1ccc(C(=O)NO)cc1)c1ccccc1 [compound 61, N-hydroxy-4-[2-(R)-phenylbutyrylamino]-benzamide]
IC50 [4, 14]: 38 nM

CC(/C=C/C(=O)NO)=C\[C@@H](C)C(=O)c1ccc(N(C)C)cc1 [TSA, trichostatin A]
concentration with approximately equal effect on acetylated histones H3/H4 and p21WAF/CIP1 ([5]; 24 h): 0.25 µM | levels of acetylated histones H3 and H4, and p21WAF/CIP1 ([5]; 24 h): elevated levels

CCCC(CCC)C(=O)Nc1ccc(CCC(=O)NO)cc1 [compound 8]
IC50 [4, 13]: 5000 nM

CC(C)C(C(=O)Nc1ccc(C(=O)NO)cc1)c1ccccc1 (stereo not drawn) [compound 42, N-Hydroxy-4-(3-methyl-2-phenyl-butyrylamino)-benzamide]
survival [8]: trend toward improved survival | toxicity [8]: no notable toxicity | IC50 (PC-3 cells): 600 nM | phosphorylation level of FAK [9]: diminished in a dose-dependent manner | phosphorylation level of p38 (p38): remained unaffected | oral bioavailability (PC-3 xenograft tumors; mouse, in vivo, po): orally bioavailable | suppression of growth of established PC-3 tumors (PC-3 xenograft tumors): effective | reduction in the growth of the tumors vs vehicle-treated control (PC-3 xenograft tumors; oral): 70.4% | reduction in PC-3 tumor growth (PC-3 xenograft tumors; oral, 100 mg/kg/day): 91.7% | GI50 (60 cell lines): 200 nM | phosphorylation level of ERKs (ERKs): diminished in a dose-dependent manner | phosphorylation level of JNK (JNK): remained unaffected | toxicity in tumor-bearing mice ([2]; 28-day course at 50 or 100 mg/kg/day): no demonstrable toxicity | body weights [2]: stable throughout the study | overt toxicity (body weights and pathological examination) ([2]; oral, 100 mg/kg/day): absence of overt toxicity | acetylation level of histone H3 in PC-3 tumors ([3]; oral, 50 or 100 mg/kg/day): significant increase
